Legend:
[1] = Example 3: UV/hydrogen peroxide sanitising of 90 m^3 apple conveying water, six photolysis chambers in series; assay type: physicochemical
Description: A hydraulic conveyor of a plant for sorting and packaging apples is selected containing a volume of 90 m^3 of water as composition for conveying Ariane, Rosy Glow and Pink Lady apples. A flow rate of conveying composition of 36 m^3/h is established in the external circuit and a flow rate of photoreactive composition of […] is established, the photoreactive composition being an aqueous solution of hydrogen peroxide at an initial concentration of 400 g/l. Under these flow conditions, all of the volume of the conveying composition of the hydraulic conveyor is theoretically treated within 2.5 hours. The composition at the inlet of the sanitising device has an initial hydrogen peroxide proportion in the order of 3 ppm sufficient to allow the decontamination of the composition at the outlet of the sanitising device formed of six photolysis chambers mounted in series, each chamber comprising five fluorescent tubes with an individual power of 200 W.
The results obtained are shown in Table 2 hereinafter in which the concentration values of boscalid from the apples conveyed with the composition to be sanitised at the inlet of the sanitising device (EC) and at the outlet of sanitising device (SC) are given in μg/l. The column SE/EC represents the ratio multiplied by 100 of the boscalid concentration at the outlet of the sixth chamber of the photolysis tank to the boscalid concentration at the inlet of the photolysis tank (EC). The column C/C0 represents the ratio of the boscalid concentration measured at the inlet of the sanitising device over time to the initial boscalid concentration (t=0).

[2] = assay type: physicochemical; conditions: 19 seconds
Description: A hydraulic conveyor of a plant for sorting and packaging apples containing a volume of 90 m^3 of water as composition for conveying Ariane, Rosy Glow and Pink Lady apples comprises a sanitising device in accordance with the invention formed of six photolysis chambers mounted in series, each chamber comprising five fluorescent tubes having an individual power of 200 W. The flow rate of the composition for conveying apples in the sanitising device is 36 m^3/h. It has been observed that the plurality of photolysis chambers mounted in series allows a rate of degradation of 96% of the initial boscalid to be achieved with a flow rate of the composition to be treated of 36 m^3/h and for an average residence time of the conveying composition in the sanitising device in the order of 19 seconds.

[3] = Example 6: pilot device, degradation of different amounts of boscalid (FIG. 7); assay type: physicochemical; conditions: boscalid 25, 80 and 200 μg/l; hydrogen peroxide 2 mg/l continuously added; 6 m^3/h
Description: A semi-industrial pilot device in accordance with one aspect of the invention comprises a tank for recirculating water to be treated of a volume of 1000 l, a circulation pump ensuring a circulation flow of the water to be treated in a sanitising device with a flow rate between 4 m^3 to 8 m^3/h. The sanitising device comprises a photolysis chamber comprising an inlet for water from the recirculation tank and an outlet for sanitised water directed to the recirculation tank. The photolysis chamber is formed of a rigid tubular envelope, of which the external wall is opaque to light and forming an inner space suitable for receiving five fluorescent tubes with a longitudinal axis extending in parallel with the longitudinal axis of the rigid tubular envelope. The inner volume of the decontamination reactor is in the order of […].
The five fluorescent tubes are tubes of 200 W emitting light at a wavelength of 254 nm and arranged longitudinally in the tubular envelope at the five points of a regular pentagon and in contact with the water to be treated flowing in the photolysis chamber. In this configuration of the sanitising device, the water to be sanitised flowing in contact with the five fluorescent tubes is subjected to substantially homogeneous illumination in the order of 500 mJ/cm^2 for a circulation flow rate of water to be sanitised in the order of 6 m^3/h. […]

Question: For O=C(Nc1ccccc1-c1ccc(Cl)cc1)c1cccnc1Cl [boscalid], which “boscalid concentration at the inlet of the sanitising device (EC)” value (from here on “boscalid concentration at the inlet”) ([1]; time 0 hours) is on record?
Answer: Its value is 2.83 µg/L.

Question: And the “percent boscalid removed between inlet and outlet of the sanitising device (100 x (1 - SC/EC))” value ([1]; time 0 hours)?
Answer: Its value is 100%.

Question: And the “boscalid concentration at the inlet” value ([1]; time 4 hours)?
Answer: Its value is 4.76 µg/L.

Question: And the “boscalid concentration at the outlet of the sanitising device (SC)” value (“boscalid concentration at the outlet” below) ([1]; time 4 hours)?
Answer: The value was 0.065 µg/L.

Question: And the “percent boscalid removed between inlet and outlet of the sanitising device (100 x (1 - SC/EC))” value ([1]; time 4 hours)?
Answer: Its value is 98.6%.

Question: What about the “boscalid concentration at the inlet” value ([1]; time 7 hours) of the same compound?
Answer: The value was 2.84 µg/L.

Question: What about the “boscalid concentration at the outlet” value ([1]; time 7 hours) of the same compound?
Answer: The value was 0.206 µg/L.

Question: And the “percent boscalid removed between inlet and outlet of the sanitising device (100 x (1 - SC/EC))” value ([1]; time 7 hours)?
Answer: Its value is 92.8%.

Question: And the “C/C0 (inlet boscalid concentration over initial concentration)” value ([1]; time 7.1 hours)?
Answer: The value was 1.

Question: What about the “boscalid concentration at the inlet” value ([1]; time 7.1 hours) of the same compound?
Answer: The value was 4.19 µg/L.

Question: What about the “percent boscalid removed between inlet and outlet of the sanitising device (100 x (1 - SC/EC))” value ([1]; time 7.1 hours) of the same compound?
Answer: Its value is 100%.

Question: And the “C/C0 (inlet boscalid concentration over initial concentration)” value ([1]; time 10.5 hours)?
Answer: Its value is 0.41.

Question: And the “boscalid concentration at the inlet” value ([1]; time 10.5 hours)?
Answer: The value was 1.73 µg/L.

Question: And the “boscalid concentration at the outlet” value ([1]; time 10.5 hours)?
Answer: The value was 0.062 µg/L.

Question: And the “percent boscalid removed between inlet and outlet of the sanitising device (100 x (1 - SC/EC))” value ([1]; time 10.5 hours)?
Answer: The value was 96.4%.

Question: What about the “C/C0 (inlet boscalid concentration over initial concentration)” value ([1]; time 12.5 hours) of the same compound?
Answer: The value was 0.32.

Question: And the “boscalid concentration at the inlet” value ([1]; time 12.5 hours)?
Answer: The value was 1.35 µg/L.

Question: What about the “percent boscalid removed between inlet and outlet of the sanitising device (100 x (1 - SC/EC))” value ([1]; time 12.5 hours) of the same compound?
Answer: Its value is 100%.

Question: And the “C/C0 (inlet boscalid concentration over initial concentration)” value ([1]; time 14.75 hours)?
Answer: The value was 0.41.

Question: And the “boscalid concentration at the inlet” value ([1]; time 14.75 hours)?
Answer: Its value is 1.71 µg/L.

Question: And the “boscalid concentration at the outlet” value ([1]; time 14.75 hours)?
Answer: The value was 0.058 µg/L.

Question: And the “percent boscalid removed between inlet and outlet of the sanitising device (100 x (1 - SC/EC))” value ([1]; time 14.75 hours)?
Answer: The value was 96.6%.

Question: What about the “C/C0 (inlet boscalid concentration over initial concentration)” value ([1]; time 17.25 hours) of the same compound?
Answer: Its value is 0.28.

Question: What about the “boscalid concentration at the inlet” value ([1]; time 17.25 hours) of the same compound?
Answer: Its value is 1.18 µg/L.

Question: And the “boscalid concentration at the outlet” value ([1]; time 17.25 hours)?
Answer: The value was 0.040 µg/L.

Question: And the “percent boscalid removed between inlet and outlet of the sanitising device (100 x (1 - SC/EC))” value ([1]; time 17.25 hours)?
Answer: The value was 96.6%.

Question: What about the “C/C0 (inlet boscalid concentration over initial concentration)” value ([1]; time 19.25 hours) of the same compound?
Answer: Its value is 0.45.

Question: What about the “boscalid concentration at the inlet” value ([1]; time 19.25 hours) of the same compound?
Answer: Its value is 1.88 µg/L.

Question: And the “percent boscalid removed between inlet and outlet of the sanitising device (100 x (1 - SC/EC))” value ([1]; time 19.25 hours)?
Answer: Its value is 100%.

Question: And the “C/C0 (inlet boscalid concentration over initial concentration)” value ([1]; time 22.75 hours)?
Answer: The value was 0.25.

Question: And the “boscalid concentration at the inlet” value ([1]; time 22.75 hours)?
Answer: Its value is 1.07 µg/L.

Question: What about the “boscalid concentration at the outlet” value ([1]; time 22.75 hours) of the same compound?
Answer: Its value is 0.064 µg/L.

Question: And the “percent boscalid removed between inlet and outlet of the sanitising device (100 x (1 - SC/EC))” value ([1]; time 22.75 hours)?
Answer: The value was 94%.

Question: What about the “C/C0 (inlet boscalid concentration over initial concentration)” value ([1]; time 24.75 hours) of the same compound?
Answer: The value was 0.15.

Question: And the “boscalid concentration at the inlet” value ([1]; time 24.75 hours)?
Answer: The value was 0.64 µg/L.

Question: What about the “boscalid concentration at the outlet” value ([1]; time 24.75 hours) of the same compound?
Answer: The value was 0.057 µg/L.

Question: What about the “percent boscalid removed between inlet and outlet of the sanitising device (100 x (1 - SC/EC))” value ([1]; time 24.75 hours) of the same compound?
Answer: Its value is 91.2%.

Question: And the “C/C0 (inlet boscalid concentration over initial concentration)” value ([1]; time 28.75 hours)?
Answer: Its value is 0.16.

Question: What about the “boscalid concentration at the inlet” value ([1]; time 28.75 hours) of the same compound?
Answer: Its value is 0.66 µg/L.

Question: What about the “boscalid concentration at the outlet” value ([1]; time 28.75 hours) of the same compound?
Answer: The value was 0.039 µg/L.

Question: And the “percent boscalid removed between inlet and outlet of the sanitising device (100 x (1 - SC/EC))” value ([1]; time 28.75 hours)?
Answer: Its value is 94%.

Question: And the “C/C0 (inlet boscalid concentration over initial concentration)” value ([1]; time 29.75 hours)?
Answer: Its value is 0.22.

Question: And the “boscalid concentration at the inlet” value ([1]; time 29.75 hours)?
Answer: Its value is 0.93 µg/L.

Question: And the “percent boscalid removed between inlet and outlet of the sanitising device (100 x (1 - SC/EC))” value ([1]; time 29.75 hours)?
Answer: Its value is 100%.

Question: And the “C/C0 (inlet boscalid concentration over initial concentration)” value ([1]; time 32.25 hours)?
Answer: Its value is 0.19.

Question: And the “boscalid concentration at the inlet” value ([1]; time 32.25 hours)?
Answer: Its value is 0.79 µg/L.

Question: What about the “boscalid concentration at the outlet” value ([1]; time 32.25 hours) of the same compound?
Answer: The value was 0.040 µg/L.

Question: What about the “percent boscalid removed between inlet and outlet of the sanitising device (100 x (1 - SC/EC))” value ([1]; time 32.25 hours) of the same compound?
Answer: The value was 95%.

Question: And the “C/C0 (inlet boscalid concentration over initial concentration)” value ([1]; time 34.75 hours)?
Answer: Its value is 0.17.

Question: And the “boscalid concentration at the inlet” value ([1]; time 34.75 hours)?
Answer: Its value is 0.73 µg/L.

Question: What about the “boscalid concentration at the outlet” value ([1]; time 34.75 hours) of the same compound?
Answer: The value was 0.043 µg/L.

Question: And the “percent boscalid removed between inlet and outlet of the sanitising device (100 x (1 - SC/EC))” value ([1]; time 34.75 hours)?
Answer: The value was 94.1%.

Question: And the “rate of degradation of the initial boscalid” value [2]?
Answer: The value was 96%.

Question: What about the “residual amount of boscalid” value [3] of the same compound?
Answer: Its value is “less than 80%”.

From patent publication US10919785B2, “Hydraulic conveyor of floating objects provided with a device for sanitising conveying composition, plant provided with such a conveyor and sanitising method” (MAF AGROBOTIC, priority 2016, dated 2021)
